{
  "source": "patent US20100137398A1",
  "about": "“USE OF HDAC INHIBITORS FOR THE TREATMENT OF GASTROINTESTINAL CANCERS” (NOVARTIS AG, priority 2007, published 2010)",
  "system": "Colo205 colon cancer xenograft",
  "assay": "Colo205 colon cancer xenograft model, tumor growth inhibition and delay",
  "format": "in vivo, Female athymic nude mice",
  "settings": "LBH589 30 mg/kg iv Mon/Wed/Fri for 3 weeks, 5-FU 75 mg/kg ip once a week for 3 weeks, or both",
  "protocol": "Female athymic nude mice-were implanted subcutaneously with Col6205 colon cancer cells. When tumors reached a medan tumor volume of 220 mm3, mice were randomized into groups of 10 mice. Mice were treated with LBH589 at 30 mg/kg intravenously on Monday, Wednesday, Friday per week for 3 weeks, 75 mg/kg of 5-Fluorouracil intraperitoneally once a week for 3 weeks, or combination of the two agents. For tumor growth inhibition (FIG. 2A), compound activity was measured as the percent change in tumor volume of treated animals over control animals (% T/C). The percentage of regression was determined as the percent change in the final tumor volume at the end of the study over the starting tumor volume. For tumor growth delay (FIG. 2B), compound activity was measured as the change in median calculated time to the study end point (TTE), which was predefined as tumor volume of 1000 mm^3.",
  "data": [
    {"smiles": "O=c1[nH]cc(F)c(=O)[nH]1", "note": "[5-FU, 5-Fluorouracil, reference compound]", "values": [
      {"measurement": "tumor growth inhibition (TGI) and tumor growth delay (TGD)", "result": "led to tumor growth inhibition (TGI) and tumor growth delay (TGD)"},
      {"measurement": "Median TTE (time to study end point, tumor volume of 1000 mm^3)", "setting": "vehicle 39.5 days", "result": 44.5, "unit": "days"}
    ]}
  ]
}
